≈ marks a conversion by molar mass, not a printed value. Where two headings read alike, the source gives them in different places.
Experiments:
[1] = system: K. pneumoniae AKPN 1109, KPC; experiment: Murine neutropenic thigh model; assay type: in vivo
Procedure: Activity is presented as the log10 difference in CFU/thigh after 24 hours of antibiotic treatment compared to CFU/thigh just prior to antibiotic treatment (2 hours post-infection). Total dose per 24 hours is shown; dosing was q12 hours. 6 mice per group, Inoculum=8.3×10^5 CFU.
(§1) The in vivo activity of Example 1 in the mouse neutropenic thigh model (Andes and Craig. Antimicrob Agents Chemother. 2002, 46:1665-1670) was determined against seven bacterial strains including susceptible Escherichia coli and Klebsiella pneumoniae; multi-drug resistant (MDR) clinical isolates of E. coli and K. pneumoniae that display resistance to multiple antibiotics (including AGs); MRSA; and two K. pneumoniae carbapenemases (KPC)-expressing strains (see Table 5). For this efficacy model, groups of six CD-1 mice were rendered neutropenic by two intraperitoneal injections of cyclophosphamide. The first injection was 150 mg/kg three days prior to infection (day −4), and the second injection was 100 mg/kg one day prior to infection (day −1). On study day 0, animals were inoculated intramuscularly (0.1 ml) with a known number of colony forming units (CFU) of the specified bacterial strain (ATCC 25922, AECO 1003, ATCC 43816, AKPN 1073, AKPN 1109, ATCC 33591 or ASMA 1030), tailored to the virulence of each strain in the model to maximize bacterial load while avoiding mortality in the untreated control arms. Antibiotics were administered via subcutaneous injection at 2 and 14 hours after bacterial challenge. At 26 hours, infected thigh tissue was harvested, homogenized, and plated to count CFU. Untreated control animals were harvested at 2 hours post-infection to assess the initial bacterial load and at 26 hours post-infection to measure growth in the absence of antibiotic treatment.

seven bacterial strains = experiment: Murine neutropenic thigh model, all strains; assay type: in vivo
Procedure: as §1, with “Untreated control animals were harvested at 2 hours post-infection to assess the initial bacterial load and at 26 hours post-infection to measure growth in the absence of antibiotic treatment.” left out

[2] = system: E. coli ATCC 25922 (AECO001); experiment: MIC, CLSI broth microdilution; assay type: cell-based; conditions: for MIC: Escherichia coli
How it was run: (§2)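 Test compounds were diluted two-fold at 2× strength in Mueller Hinton Broth, then combined 1:1 with saline-suspended bacteria from an overnight agar colony to reach 5×10^5 CFU/mL. Incubation followed at 35° C. for 20 hours in ambient air, per CLSI reference methods.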

[3] = system: P. aeruginosa ATCC 27853 (APAE001); experiment: MIC, CLSI broth microdilution; assay type: cell-based; conditions: Pseudomonas aeruginosa, ATCC27853; Table 2; read-out: MIC P. aeruginosa
How it was run: as §2

[4] = system: S. aureus ATCC 33591, MRSA; experiment: MIC of thigh model strain; assay type: cell-based; conditions: Staphylococcus aureus; Table 5; S. aureus MRSA ATCC 33591; read-out: MIC
Procedure: (§3) Minimum inhibitory concentrations (MIC) were determined by reference Clinical and Laboratory Standards Institute (CLSI) broth microdilution methods per M7-A7 [2006]. Quality control ranges utilizing E. coli ATCC 25922, P. aeruginosa ATCC 27853 and S. aureus ATCC 29213, and interpretive criteria for comparator agents were as published in CLSI M100-S17 [2007]. Briefly, serial two-fold dilutions of the test compounds were prepared at 2× concentration in Mueller Hinton Broth. The compound dilutions were mixed in 96-well assay plates in a 1:1 ratio with bacterial inoculum. The inoculum was prepared by suspension of a colony from an agar plate that was prepared the previous day. Bacteria were suspended in sterile saline and added to each assay plate to obtain a final concentration of 5×10^5 CFU/mL. The plates were incubated at 35° C. for 20 hours in ambient air.

E. coli AECO 1003, MDR = experiment: MIC of thigh model strain; assay type: cell-based; conditions: Escherichia coli; Table 5; E. coli MDR AECO 1003; read-out: MIC
Procedure: as §3

S. aureus (23) = experiment: MIC, urinary tract infection isolates; assay type: cell-based; conditions: Staphylococcus aureus; S. aureus isolates, including 43.5% oxacillin-resistant strains
Procedure: as §3
(§4) In order to determine the activity of representative antibacterial aminoglycoside compounds against bacterial species that commonly cause complicated urinary tract infections worldwide, isolates were collected from 47 medical centers in the U.S. and Europe (10 countries) from urine or blood culture with the source of bacteremia documented as a urinary tract infection. Strains were susceptibility tested against Example 1, gentamicin, amikacin and 10 comparators by CLSI broth microdilution. These MIC assays were conducted following the same protocol as set forth in Example 110. Pathogens (169 in total) included E. coli, Klebsiella spp., Enterobacter spp., Citrobacter spp., P. mirabilis, M. Morganii, P. aeruginosa, S. aureus and S. saprophyticus.

[5] = system: E. coli, Klebsiella spp., Enterobacter spp. and Citrobacter spp.; experiment: MIC, urinary tract infection isolates; assay type: cell-based; conditions: Escherichia coli, range among E. coli
Procedure: as §3, §4

P. aeruginosa (19) = experiment: MIC, urinary tract infection isolates; assay type: cell-based; conditions: Pseudomonas aeruginosa; P. aeruginosa isolates
Procedure: as §3, §4

[6] = system: P. mirabilis and M. morganii; experiment: MIC, urinary tract infection isolates; assay type: cell-based
Procedure: as §3, §4

S. saprophyticus (19) = experiment: MIC, urinary tract infection isolates; assay type: cell-based; conditions: Staphylococcus saprophyticus; S. saprophyticus isolates
Procedure: as §3, §4

SMILES: CN[C@@H]1[C@@H](O)[C@@H](O[C@@H]2[C@@H](O)[C@H](O[C@H]3OC(CNCCO)=CC[C@H]3N)[C@@H](N)C[C@H]2NC(=O)[C@@H](O)CCN)OC[C@]1(C)O [Example 1, 6′-(2-Hydroxy-ethyl)-1-(4-amino-2(S)-hydroxy-butyryl)-sisomicin]
- ED50/MIC ([1]; K. pneumoniae AKPN 1109): 18-37
- ED50 ([1]; Klebsiella pneumoniae, sc, neutropenic CD-1 mice, subcutaneous at 2 and 14 hours, K. pneumoniae AKPN 1109): 9.2 mg/kg
- bacterial load after 24 hours of treatment versus initial bacterial load at 2 hours post-inoculation ([1]; highest test dosage, challenge 8.3×10^5 CFU AKPN 1109, FIG. 3): reduced back to the level of the initial bacterial load
- bacterial titers versus initial bacterial load (static level) (seven bacterial strains; all 7 strains): reducing bacterial titers back to or below the initial bacterial load
- in vivo efficacy in words (seven bacterial strains; gentamicin resistant strains): efficacious
- MIC ([2]; ATCC25922, Table 2, read-out: MIC E. coli): < 1 µg/mL
- MIC ([2]; ATCC25922, Table 5, E. coli Susceptible ATCC 25922, read-out: MIC): 1 µg/mL (≈ 1.69 µM)
- MIC ([2]; Table 1, AECO001 is ATCC25922, read-out: MIC AECO001): < 1 µg/mL
- MIC AECO001 ([2]; Table 3, ATCC25922): 0.5 µg/mL (≈ 0.844 µM)
- MIC [3]: 1 to 16 µg/mL (≈ 1.69 to 27 µM)
- MIC [4]: 4 to 8 µg/mL
- MIC (E. coli AECO 1003, MDR): 1 µg/mL
- MIC90 (S. aureus (23)): 2 µg/mL (≈ 3.37 µM)
- MIC90 [5]: 0.5 to 2 µg/mL (≈ 0.844 to 3.37 µM)
- MIC90 (P. aeruginosa (19)): 16 µg/mL (≈ 27 µM)
- MIC90 [6]: 4 to 8 µg/mL (≈ 6.75 to 13.5 µM)
- MIC50 (S. saprophyticus (19)): ≤ 0.25 µg/mL
- MIC90 (S. saprophyticus (19)): 0.5 µg/mL (≈ 0.844 µM)
